Experimental data taken from paper PMC3529812 (Journal of immunology (Baltimore, Md. : 1950), 2012).

Assays:
20S proteasome = 20S proteasome cleavage assay with LC-MS of cleavage products; assay type: biochemical, human; settings: 10 μM lactacystin; substrate 23 mer; compared to uninhibited proteasome reaction
HLA-A2 = HLA-A2 (Homo sapiens, UniProt P04439, D140Y/D185E/D98H/E176V/E277Q/G131W/G231S/I119V/I121R/I166T/I218V/L300P/L318F/N151K/N90K/P208A/P217A/Q86G/Q94H/R138H/R169H/T345S); assay: T2 HLA-A2 stabilization assay; assay type: cell-based

SMILES | Effect of lactacystin on generation of p373–382 by proteasome (20S proteasome) | EC50 (HLA-A2)
CC(=O)N[C@@H](CSC(=O)[C@]1([C@@H](O)C(C)C)NC(=O)[C@H](C)[C@@H]1O)C(=O)O [lactacystin] | not completely blocked | 
CC(C)C[C@H](NC(=O)[C@@H](N)CO)C(=O)N[C@@H](C)C(=O)N[C@@H](Cc1ccccc1)C(=O)N[C@@H](CC(C)C)C(=O)N1CCC[C@H]1C(=O)N[C@@H](CCC(=O)O)C(=O)N[C@@H](CO)C(=O)N[C@@H](Cc1ccccc1)C(=O)N[C@@H](CC(=O)O)C(=O)O [p373–382] |  | 1800 nM
